Inhibition and IC50 data for 23 compounds are collected here from patent publication US8519149B2, “Tricyclic compounds as mPGES-1 inhibitors” (Glenmark Pharmaceuticals S.A., priority 2010, dated 2013).

In the assay the target is T1, Recombinant human mPGES-1 (Homo sapiens, UniProt O14684).
T1 sequence (O14684 1-152): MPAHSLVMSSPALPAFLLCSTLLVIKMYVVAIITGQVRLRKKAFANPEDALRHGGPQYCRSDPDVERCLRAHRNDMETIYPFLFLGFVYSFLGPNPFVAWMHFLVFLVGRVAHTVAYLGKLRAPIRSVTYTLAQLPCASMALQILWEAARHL
Briefly: In-vitro mPGES-1 enzyme inhibition assay (PGE2 formation from PGH2, HTRF detection). The format is biochemical. Particulars: for inhibition at 1 µM: 1 μM test compound, read-out: Percentage inhibition at 1 μM; for inhibition at 1 µM / inhibition at 10 µM: recombinant human mPGES-1 microsomal fraction; for inhibition at 10 µM: 10 μM test compound, read-out: Percentage inhibition at 10 μM; for IC50: class symbols, selected examples. Summed up: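 Crude microsomal fractions containing recombinant human mPGES-1 (40-60 μg/mL protein) convert PGH2 to PGE2 in the presence of reduced glutathione, with 0.5% final DMSO. Reaction stopped with stannous chloride, and PGE2 measured by anti-PGE2 antibody (HTRF) detection. IC50 by nonlinear regression of % inhibition versus uninhibited enzyme control.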
In general terms: TR-FRET usually uses a lanthanide donor and a delayed reading to cut background.

What is called inhibition is the drop in the measured response relative to a control, in per cent. For the compound `Cc1cc2c(o1)c(C(=O)Nc1cccc(C(F)(F)F)c1)cc1nc(Nc3c(Cl)cccc3Cl)[nH]c12` [Example-68, 2-[(2,6-Dichlorophenyl)amino]-7-methyl-N-[3-(trifluoromethyl)phenyl]-1H-furo[3,2-e]benzimidazole-5-carboxamide], the inhibition at 1 µM was determined as 97.6% and the inhibition at 10 µM was 98.5%.

Broadly, the IC50 is the point on the concentration scale where inhibition reaches its midpoint. For the compound `COCCCNC(=O)c1cc2nc(Nc3c(Cl)cccc3Cl)[nH]c2c2c1OC(C)(C)C2` [Example-69, 2-[(2,6-Dichlorophenyl)amino]-N-(3-methoxypropyl)-7,7-dimethyl-7,8-dihydro-1H-furo[3,2-e]benzimidazole-5-carboxamide], the inhibition at 1 µM amounted to 86.2%, the inhibition at 10 µM stood at 98% and the IC50 is less than 0.05 µM.

`CC1(C)Cc2c(c(C(=O)NCCN3CCOCC3)cc3nc(Nc4c(Cl)cccc4Cl)[nH]c23)O1` [Example-70, 2-[(2,6-Dichlorophenyl)amino]-7,7-dimethyl-N-[2-(morpholin-4-yl)ethyl]-7,8-dihydro-1H-furo[3,2-e]benzimidazole-5-carboxamide]: the inhibition at 1 µM stood at 69.1% and the inhibition at 10 µM came out at 88.2%.

Consider `Cc1cc2c(o1)c(C(=O)Nc1ccc(Br)cn1)cc1nc(Nc3c(Cl)cccc3Cl)[nH]c12` [Example-71, N-(5-Bromopyridin-2-yl)-2-[(2,6-dichlorophenyl)amino]-7-methyl-1H-furo[3,2-e]benzimidazole-5-carboxamide], for which the inhibition at 1 µM was 93.9%, the inhibition at 10 µM was determined as 98.4% and the IC50 was less than 0.05 µM.

As for `CC1(C)Cc2c(c(C(=O)Nc3ccccc3Br)cc3nc(Nc4c(Cl)cccc4Cl)[nH]c23)O1` [Example-72, N-(2-Bromophenyl)-2-[(2,6-dichlorophenyl)amino]-7,7-dimethyl-7,8-dihydro-1H-furo[3,2-e]benzimidazole-5-carboxamide], the inhibition at 1 µM was found to be 93.2%, the inhibition at 10 µM turned out to be 93.7% and the IC50 is less than 0.05 µM.

Regarding `CC1(C)Cc2c(c(C(=O)NNc3ccc(Br)cc3)cc3nc(Nc4c(Cl)cccc4Cl)[nH]c23)O1` [Example-74], the inhibition at 1 µM was found to be 93.4%, the inhibition at 10 µM was found to be 94.7% and the IC50 fell in the range of 0.05 to 0.1 µM.

In the case of `CC1(C)Cc2c(c(C(=O)Nc3ccccc3C(F)(F)F)cc3nc(Nc4c(Cl)cccc4Cl)[nH]c23)O1` [Example-75, 2-[(2,6-Dichlorophenyl)amino]-7,7-dimethyl-N-[2-(trifluoromethyl)phenyl]-7,8-dihydro-1H-furo[3,2-e]benzimidazole-5-carboxamide], the inhibition at 1 µM worked out at 94.8%, the inhibition at 10 µM was 95% and the IC50 was less than 0.05 µM.

Turning to `CC1(C)Cc2c(c(C(=O)Nc3c(F)cccc3F)cc3nc(Nc4c(Cl)cccc4Cl)[nH]c23)O1` [Example-76, 2-[(2,6-Dichlorophenyl)amino]-N-(2,6-difluorophenyl)-7,7-dimethyl-7,8-dihydro-1H-furo[3,2-e]benzimidazole-5-carboxamide], the inhibition at 1 µM was 95.8%, the inhibition at 10 µM was 99.6% and the IC50 is less than 0.05 µM.

For the compound `CC1(C)Cc2c(c(C(=O)Nc3ccccc3C(F)(F)F)cc3nc(Nc4c(F)cccc4Cl)[nH]c23)O1` [Example-77, 2-[(2-Chloro-6-fluorophenyl)amino]-7,7-dimethyl-N-[2-(trifluoromethyl)phenyl]-7,8-dihydro-1H-furo[3,2-e]benzimidazole-5-carboxamide], the inhibition at 1 µM came to 93.1%, the inhibition at 10 µM worked out at 89.9% and the IC50 is less than 0.05 µM.

As for `CC1(C)Cc2c(c(C(=O)Nc3ccc(Br)cc3)cc3nc(Nc4ccccc4Cl)[nH]c23)O1` [Example-78, N-(4-Bromophenyl)-2-[(2-chlorophenyl)amino]-7,7-dimethyl-7,8-dihydro-1H-furo[3,2-e]benzimidazole-5-carboxamide], the inhibition at 1 µM was found to be 88.5%, the inhibition at 10 µM came to 96.4% and the concentration for half-maximal inhibition (IC50) is less than 0.05 µM.

For `CC1(C)Cc2c(c(C(=O)Nc3ccccc3C(F)(F)F)cc3nc(Nc4ccccc4Cl)[nH]c23)O1` [Example-79, 2-[(2-Chlorophenyl)amino]-7,7-dimethyl-N-[2-(trifluoromethyl)phenyl]-7,8-dihydro-1H-furo[3,2-e]benzimidazole-5-carboxamide], the inhibition at 1 µM worked out at 97.4%, the inhibition at 10 µM amounted to 91.9% and the IC50 was 0.05 to 0.1 µM.

As to `CC1(C)Cc2c(c(C(=O)NCc3ccccc3C(F)(F)F)cc3nc(Nc4c(F)cccc4Cl)[nH]c23)O1` [Example-80, 2-[(2-Chloro-6-fluorophenyl)amino]-7,7-dimethyl-N-[2-(trifluoromethyl)benzyl]-7,8-dihydro-1H-furo[3,2-e]benzimidazole-5-carboxamide], the inhibition at 1 µM turned out to be 93.2%, the inhibition at 10 µM is 92% and the IC50 is less than 0.05 µM.

Consider `CC1(C)Cc2c(c(C(=O)NCc3ccccc3C(F)(F)F)cc3nc(Nc4c(Cl)cccc4Cl)[nH]c23)O1` [Example-82, 2-[(2,6-Dichlorophenyl)amino]-7,7-dimethyl-N-[2-(trifluoromethyl)benzyl]-7,8-dihydro-1H-furo[3,2-e]benzimidazole-5-carboxamide], for which the inhibition at 1 µM was 94.1%, the inhibition at 10 µM came to 97.6% and the IC50 is less than 0.05 µM.

In the case of `CC1(C)Cc2c(c(C(=O)NCCc3ccc(Cl)cc3)cc3nc(Nc4c(Cl)cccc4Cl)[nH]c23)O1` [Example-83, N-[2-(4-Chlorophenyl)ethyl]-2-[(2,6-dichlorophenyl)amino]-7,7-dimethyl-7,8-dihydro-1H-furo[3,2-e]benzimidazole-5-carboxamide], the inhibition at 1 µM turned out to be 87.7%, the inhibition at 10 µM stood at 89.3% and the IC50 was less than 0.05 µM.

In the case of `CC1(C)Cc2c(c(C(=O)NCc3ccccc3Br)cc3nc(Nc4c(Cl)cccc4Cl)[nH]c23)O1` [Example-84, N-(2-Bromobenzyl)-2-[(2,6-dichlorophenyl)amino]-7,7-dimethyl-7,8-dihydro-1H-furo[3,2-e]benzimidazole-5-carboxamide], the inhibition at 1 µM worked out at 93.7%, the inhibition at 10 µM was found to be 94.4% and the IC50 is less than 0.05 µM.

Regarding `Cc1cc2c(o1)c(C(=O)NCc1ccccc1C(F)(F)F)cc1nc(Nc3c(Cl)cccc3Cl)[nH]c12` [Example-85, 2-[(2,6-Dichlorophenyl)amino]-7-methyl-N-[2-(trifluoromethyl)benzyl]-1H-furo[3,2-e]benzimidazole-5-carboxamide], the inhibition at 1 µM turned out to be 93.3%, the inhibition at 10 µM amounted to 95.4% and the IC50 lay in the range of 0.05 to 0.1 µM.

Consider `CC1(C)Cc2c(c(C(=O)Nc3ccc(C(F)(F)F)cc3)cc3nc(Nc4ccc(F)cc4Cl)[nH]c23)O1` [Example-86, 2-[(2-Chloro-4-fluorophenyl)amino]-7,7-dimethyl-N-[4-(trifluoromethyl)phenyl]-7,8-dihydro-1H-furo[3,2-e]benzimidazole-5-carboxamide], for which the inhibition at 1 µM was 95%, the inhibition at 10 µM stood at 98.7% and the IC50 is less than 0.05 µM.

With `Cc1ccc(Nc2nc3cc(C(=O)Nc4ccc(C(F)(F)F)cc4)c4c(c3[nH]2)CC(C)(C)O4)c(Cl)c1` [Example-87, 2-[(2-Chloro-4-methylphenyl)amino]-7,7-dimethyl-N-[4-(trifluoromethyl)phenyl]-7,8-dihydro-1H-furo[3,2-e]benzimidazole-5-carboxamide], the inhibition at 1 µM was 87.4%, the inhibition at 10 µM turned out to be 92.2% and the IC50 is less than 0.05 µM.

Turning to `CC1(C)Cc2c(c(C(=O)NCc3ccccc3C(F)(F)F)cc3nc(Nc4ccccc4Cl)[nH]c23)O1` [Example-88, 2-[(2-Chlorophenyl)amino]-7,7-dimethyl-N-[2-(trifluoromethyl)benzyl]-7,8-dihydro-1H-furo[3,2-e]benzimidazole-5-carboxamide], the inhibition at 1 µM stood at 85.5%, the inhibition at 10 µM turned out to be 99.4% and the IC50 was more than 0.1 µM.

In the case of `CC1(C)Cc2c(c(C(=O)Nc3ccc(C(F)(F)F)cc3)cc3nc(Nc4ccccc4Cl)[nH]c23)O1` [Example-89, 2-[(2-Chlorophenyl)amino]-7,7-dimethyl-N-[4-(trifluoromethyl)phenyl]-7,8-dihydro-1H-furo[3,2-e]benzimidazole-5-carboxamide], the inhibition at 1 µM was determined as 97.1%, the inhibition at 10 µM was 97.1% and the IC50 is less than 0.05 µM.

For `CC(C)c1ccc(NC(=O)c2cc3nc(Nc4c(Cl)cccc4Cl)[nH]c3c3c2OC(C)(C)C3)cc1` [Example-90, 2-[(2,6-Dichlorophenyl)amino]-7,7-dimethyl-N-[4-(propan-2-yl)phenyl]-7,8-dihydro-1H-furo[3,2-e]benzimidazole-5-carboxamide], the inhibition at 1 µM came to 97.7%, the inhibition at 10 µM is 98.4% and the IC50 is less than 0.05 µM.

Take `CC1(C)Cc2c(c(C(=O)Nc3ccc(C(F)(F)F)cc3)cc3nc(Nc4ccc(Cl)cc4Cl)[nH]c23)O1` [Example-91, 2-[(2,4-Dichlorophenyl)amino]-7,7-dimethyl-N-[4-(trifluoromethyl)phenyl]-7,8-dihydro-1H-furo[3,2-e]benzimidazole-5-carboxamide]: the inhibition at 1 µM was 43.9% and the inhibition at 10 µM stood at 60.2%.

Turning to `Cc1ccc(Nc2nc3cc(C(=O)NCc4ccc(C(F)(F)F)cc4)c4c(c3[nH]2)CC(C)(C)O4)c(Cl)c1` [Example-92, 2-[(2-Chloro-4-methylphenyl)amino]-7,7-dimethyl-N-[4-(trifluoromethyl)benzyl]-7,8-dihydro-1H-furo[3,2-e]benzimidazole-5-carboxamide], the inhibition at 1 µM was determined as 75.4% and the inhibition at 10 µM was 76%.
